Reference: US9056851B2, “Thiolactone antibiotics” (priority 2011, dated 2015)
In brackets after ≈: the same amount, converted by molar mass. Where two headings read alike, the source gives them in different places.

How the values were obtained:
S. aureus RN4220 = test: MIC against S. aureus RN4220 (MSSA); type: cell-based; details: Staphylococcus aureus
F. tularensis LVS = test: microbe, parasite or virus in culture; type: cell-based; details: Francisella tularensis, read-out: MIC (μg/ml) F. tu
Y. pestis A1122 = test: microbe, parasite or virus in culture; type: cell-based; details: Yersinia pestis, A1122, read-out: MIC (μg/ml) Y. pestis
M. tuberculosis H37Rv = test: MIC against M. tuberculosis; type: cell-based; details: Mycobacterium tuberculosis, read-out: MIC (μg/ml) M. tb (MIC99)
S. aureus BAA1762 = test: MIC against S. aureus BAA1762 (MRSA); type: cell-based; details: Staphylococcus aureus, read-out: MIC (μg/ml) Staph. aureus BAA1762 MRSA
B. thialandensis Bt38 = test: MIC against B. thialandensis; type: cell-based; details: read-out: MIC (μg/ml) B. thialandensis Bt.38 (efflux^−)
B. pseudomallei Bp82z66 = test: microbe, parasite or virus in culture; type: cell-based; details: Burkholderia pseudomallei, BP82Z66, read-out: MIC (μg/ml) B. pseudomallei
Shigella flexneri 2b T1 = details: cited from earlier work
Salmonella enterides T-1 = details: cited from earlier work
E. coli No9 = details: cited from earlier work
Shigella sonnei T1 = details: cited from earlier work
E. coli 11 = details: cited from earlier work
M. smegmatis MC^2155 = test: MIC against M. smegmatis; type: cell-based; details: Mycolicibacterium smegmatis, MC^2155, read-out: MIC (μg/ml) M. smeg
bacteria of Table 4 = details: broad range of bacteria (Table 4); cited from earlier work
[1] = in vivo; cited from earlier work
Klebsiella pneumoniae [2] = details: urinary tract and oral infections; cited from earlier work
M. tuberculosis = details: cited from earlier work
Staphylococcus aureus = details: cited from earlier work
Salmonella paratyphi = details: cited from earlier work
E. coli NIHJ = details: cited from earlier work
mammalian FAS-I enzymes = details: selectivity versus FAS-II KAS enzymes; cited from earlier work
Salmonella typhi = details: cited from earlier work
Klebsiella pneumoniae [3] = details: cited from earlier work
[4] = in vivo; cited from earlier work; remark: listed apart in the source
Pasteurella multocida = details: cited from earlier work
Serratia marcescens [5] = details: urinary tract and oral infections; cited from earlier work
Serratia marcescens [6] = details: cited from earlier work
[7] = rats, orally and by intramuscular injection; cited from earlier work
[8] = MIC90, read-out: MIC (μg/ml) Staph. aureus RN4220 MSSA

C=C/C(C)=C/[C@@]1(C)SC(=O)C(CCCCn2cc(CNC(=O)c3ccc(NS(=O)(=O)c4ccc(F)cc4)cc3)nn2)=C1O [TLM34]
MIC (S. aureus RN4220; [8]): > 64 µg/mL
MIC (F. tularensis LVS): 250 µg/mL (≈ 400 µM)
MIC (Y. pestis A1122): 250 µg/mL (≈ 400 µM)
MIC99 (M. tuberculosis H37Rv; MIC99, H37Rv): 12.5 µg/mL (≈ 20 µM)
MIC (S. aureus BAA1762; MIC90): > 100 µg/mL
MIC (B. thialandensis Bt38): 250 µg/mL (≈ 400 µM)

C=C/C(C)=C/[C@@]1(C)SC(=O)C(C(C)=O)=C1O [TLM35]
MIC (S. aureus RN4220; [8]): 64 µg/mL (≈ 269 µM)
MIC (F. tularensis LVS): 8.78 µg/mL (≈ 36.8 µM)
MIC99 (M. tuberculosis H37Rv; MIC99, H37Rv): 12.5 µg/mL (≈ 52.5 µM)
MIC (S. aureus BAA1762; MIC90): 32 µg/mL (≈ 134 µM)
MIC (B. pseudomallei Bp82z66): 155 µg/mL (≈ 649 µM)

C=C/C(C)=C/[C@@]1(C)SC(=O)C(C(=O)C(F)(F)F)=C1O [TLM36]
MIC (S. aureus RN4220; [8]): > 64 µg/mL
MIC (F. tularensis LVS): 98.1 µg/mL (≈ 336 µM)
MIC99 (M. tuberculosis H37Rv; MIC99, H37Rv): > 100 µg/mL
MIC (S. aureus BAA1762; MIC90): 64 µg/mL (≈ 219 µM)
MIC (B. pseudomallei Bp82z66): 160 µg/mL (≈ 547 µM)

C=C/C(C)=C/[C@@]1(C)SC(=O)C(C(=O)OC)=C1O [TLM37]
MIC (S. aureus RN4220; [8]): > 64 µg/mL
MIC (F. tularensis LVS): 58.2 µg/mL (≈ 229 µM)
MIC99 (M. tuberculosis H37Rv; MIC99, H37Rv): 100 µg/mL (≈ 393 µM)
MIC (S. aureus BAA1762; MIC90): > 64 µg/mL
MIC (B. pseudomallei Bp82z66): 160 µg/mL (≈ 631 µM)

C=C/C(C)=C/[C@@]1(C)SC(=O)C(C(=O)CCC)=C1O [TLM38]
MIC (S. aureus RN4220; [8]): 16 µg/mL (≈ 60.1 µM)
MIC (F. tularensis LVS): 1.82 µg/mL (≈ 6.83 µM)
MIC99 (M. tuberculosis H37Rv; MIC99, H37Rv): 12.5 µg/mL (≈ 46.9 µM)
MIC (S. aureus BAA1762; MIC90): 32 µg/mL (≈ 120 µM)
MIC (B. pseudomallei Bp82z66): 171 µg/mL (≈ 644 µM)

C=C/C(C)=C/[C@@]1(C)SC(=O)C(C(=O)c2ccccc2C(=O)O)=C1O [TLM39]
MIC (S. aureus RN4220; [8]): 32 µg/mL (≈ 92.9 µM)
MIC (F. tularensis LVS): 16 µg/mL (≈ 46.4 µM)
MIC99 (M. tuberculosis H37Rv; MIC99, H37Rv): > 100 µg/mL
MIC (S. aureus BAA1762; MIC90): 32 µg/mL (≈ 92.9 µM)
MIC (B. pseudomallei Bp82z66): 155 µg/mL (≈ 449 µM)

C=C/C(C)=C/[C@@]1(C)SC(=O)C=C1OCC(=O)NCCN=[N+]=[N-] [TLM40]
MIC (S. aureus RN4220; [8]): > 64 µg/mL
MIC (F. tularensis LVS): 39.1 µg/mL (≈ 121 µM)
MIC99 (M. tuberculosis H37Rv; MIC99, H37Rv): > 100 µg/mL
MIC (S. aureus BAA1762; MIC90): > 64 µg/mL
MIC (B. pseudomallei Bp82z66): > 256 µg/mL

C=C/C(C)=C/[C@@]1(C)SC(=O)C=C1OCC(=O)NCCNC(=O)OC(C)(C)C [TLM41]
MIC (S. aureus RN4220; [8]): > 64 µg/mL
MIC (F. tularensis LVS): 54.5 µg/mL (≈ 137 µM)
MIC99 (M. tuberculosis H37Rv; MIC99, H37Rv): > 100 µg/mL
MIC (S. aureus BAA1762; MIC90): > 64 µg/mL
MIC (B. pseudomallei Bp82z66): > 256 µg/mL

C=C/C(C)=C/[C@@]1(C)SC(=O)C=C1OCC(=O)NCCn1cc(CNC(=O)c2ccc(NS(=O)(=O)c3ccc(F)cc3)cc2)nn1 [TLM42]
MIC (S. aureus RN4220; [8]): > 64 µg/mL
MIC (F. tularensis LVS): > 256 µg/mL
MIC99 (M. tuberculosis H37Rv; MIC99, H37Rv): 100 µg/mL (≈ 153 µM)
MIC (S. aureus BAA1762; MIC90): > 64 µg/mL
MIC (B. pseudomallei Bp82z66): 178 µg/mL (≈ 272 µM)

C=C/C(C)=C/[C@@]1(C)SC(=O)C(C(=O)CCCCCCCCCCCCCCC)=C1O [TLM43]
MIC (S. aureus RN4220; [8]): 0.5 µg/mL (≈ 1.15 µM)
MIC99 (M. tuberculosis H37Rv; MIC99, H37Rv): > 100 µg/mL
MIC (S. aureus BAA1762; MIC90): 1 µg/mL (≈ 2.3 µM)
MIC (B. pseudomallei Bp82z66): 1.36 µg/mL (≈ 3.13 µM)

C=C/C(C)=C/[C@@]1(C)SC(=O)C(C(=O)CCCCN=[N+]=[N-])=C1O [TLM44]
MIC (S. aureus RN4220; [8]): 16 µg/mL (≈ 49.8 µM)
MIC (S. aureus BAA1762; MIC90): 16 µg/mL (≈ 49.8 µM)

C=C/C(C)=C/[C@@]1(C)SC(=O)C(C(=O)CCCCc2ccc(-c3ccccc3)cc2)=C1O [TLM45]
MIC (S. aureus RN4220; [8]): 0.5 µg/mL (≈ 1.16 µM)
MIC (F. tularensis LVS): 0.21 µg/mL (≈ 0.485 µM)
MIC99 (M. tuberculosis H37Rv; MIC99, H37Rv): 50 µg/mL (≈ 116 µM)
MIC (S. aureus BAA1762; MIC90): 2 µg/mL (≈ 4.62 µM)
MIC (B. pseudomallei Bp82z66): 4.58 µg/mL (≈ 10.6 µM)

C=C/C(C)=C/[C@@]1(C)SC(=O)C(C)=C1O [TLM, 5R-(+)-Thiolactomycin]
MIC (Shigella flexneri 2b T1): 6.3 µg/mL (≈ 30 µM)
MIC (Salmonella enterides T-1): 12.5 µg/mL (≈ 59.4 µM)
MIC (S. aureus RN4220; read-out: MIC (μg/ml) Staph. aureus RN4220 MSSA): 75 µg/mL (≈ 357 µM)
MIC (E. coli No9): 100 µg/mL (≈ 476 µM)
MIC (Shigella sonnei T1): 100 µg/mL (≈ 476 µM)
MIC (E. coli 11): 25 µg/mL (≈ 119 µM)
MIC (M. smegmatis MC^2155): 25 µg/mL (≈ 119 µM)
MIC values, range over organisms (bacteria of Table 4): 6 to 200 µg/mL
bioavailability [1]: high bioavailability
protection from infection (Klebsiella pneumoniae [2]): provides protection
MIC (F. tularensis LVS): 2.81 µg/mL (≈ 13.4 µM)
MIC (M. tuberculosis): 25 µg/mL (≈ 119 µM)
MIC (Staphylococcus aureus): 25 µg/mL (≈ 119 µM)
MIC (Salmonella paratyphi): 50 µg/mL (≈ 238 µM)
MIC (E. coli NIHJ): 200 µg/mL (≈ 951 µM)
inhibition of mammalian FAS-I enzymes (mammalian FAS-I enzymes): does not inhibit
MIC (Salmonella typhi): 12.5 µg/mL (≈ 59.4 µM)
MIC (Klebsiella pneumoniae [3]): 100 µg/mL (≈ 476 µM)
MIC (Y. pestis A1122): 8.09 µg/mL (≈ 38.5 µM)
MIC99 (M. tuberculosis H37Rv; H37RV): 3.13 µg/mL (≈ 14.9 µM)
toxicity [4]: low toxicity
MIC (Pasteurella multocida): 0.2 µg/mL (≈ 0.951 µM)
protection from infection (Serratia marcescens [5]): provides protection
MIC (S. aureus BAA1762): 75 µg/mL (≈ 357 µM)
MIC (B. pseudomallei Bp82z66): 13.1 µg/mL (≈ 62.4 µM)
MIC (Serratia marcescens [6]): 100 µg/mL (≈ 476 µM)
absorption [7]: rapidly absorbed
